Experimental data published in ChEMBL document CHEMBL4346657, “Anticancer activity, dual prooxidant/antioxidant effect and apoptosis induction profile of new bichalcophene-5-carboxamidines” (Eur J Med Chem, 2019).

Legend:
[1] = test system: UO-31; assay: Antiproliferative activity against human UO31 cells assessed as growth inhibition after 48 hrs by sulforhodamine B assay; format: functional; conditions: UO-31, 48 h
[2] = test system: TK-10; assay: Antiproliferative activity against human TK10 cells assessed as growth inhibition after 48 hrs by sulforhodamine B assay; format: functional; conditions: TK-10, 48 h
[3] = test system: Panel NCI-60 (60 carcinoma cell lines); assay: Antiproliferative activity against human NCI60 cells assessed as growth inhibition after 48 hrs by sulforhodamine B assay; format: functional
[4] = Selectivity index, ratio of IC50 for human WI38 cells to GI50 for human NCI60 cells
[5] = test system: PC-3; assay: Antiproliferative activity against human PC3 cells assessed as growth inhibition after 48 hrs by sulforhodamine B assay; format: functional; conditions: PC-3, 48 h
[6] = test system: ACHN; assay: Antiproliferative activity against human ACHN cells assessed as growth inhibition after 48 hrs by sulforhodamine B assay; format: functional
[7] = test system: A498; assay: Antiproliferative activity against human A498 cells assessed as growth inhibition after 48 hrs by sulforhodamine B assay; format: functional; conditions: A498, 48 h
[8] = test system: 786-0; assay: Antiproliferative activity against human 786-0 cells assessed as growth inhibition after 48 hrs by sulforhodamine B assay; format: functional; conditions: 786-0, 48 h
[9] = test system: NCI/ADR-RES; assay: Antiproliferative activity against human NCI-ADR-RES cells assessed as growth inhibition after 48 hrs by sulforhodamine B assay; format: functional
[10] = test system: OVCAR-8; assay: Antiproliferative activity against human OVCAR8 cells assessed as growth inhibition after 48 hrs by sulforhodamine B assay; format: functional; conditions: OVCAR-8, 48 h
[11] = test system: OVCAR-4; assay: Antiproliferative activity against human OVCAR4 cells assessed as growth inhibition after 48 hrs by sulforhodamine B assay; format: functional; conditions: OVCAR-4, 48 h
[12] = test system: IGROV-1; assay: Antiproliferative activity against human IGROV1 cells assessed as growth inhibition after 48 hrs by sulforhodamine B assay; format: functional; conditions: IGROV-1, 48 h
[13] = test system: SK-MEL-5; assay: Antiproliferative activity against human SK-MEL-5 cells assessed as growth inhibition after 48 hrs by sulforhodamine B assay; format: functional; conditions: SK-MEL-5, 48 h
[14] = test system: SK-MEL-28; assay: Antiproliferative activity against human SK-MEL-28 cells assessed as growth inhibition after 48 hrs by sulforhodamine B assay; format: functional; conditions: SK-MEL-28, 48 h
[15] = test system: MDA-MB-435; assay: Antiproliferative activity against human MDA-MB-435 cells assessed as growth inhibition after 48 hrs by sulforhodamine B assay; format: functional; conditions: MDA-MB-435, 48 h
[16] = test system: U-251; assay: Antiproliferative activity against human U251 cells assessed as growth inhibition after 48 hrs by sulforhodamine B assay; format: functional; conditions: U-251, 48 h
[17] = test system: SF-295; assay: Antiproliferative activity against human SF295 cells assessed as growth inhibition after 48 hrs by sulforhodamine B assay; format: functional; conditions: SF-295, 48 h
[18] = test system: SW-620; assay: Antiproliferative activity against human SW620 cells assessed as growth inhibition after 48 hrs by sulforhodamine B assay; format: functional; conditions: SW-620, 48 h
[19] = test system: KM12; assay: Antiproliferative activity against human KM12 cells assessed as growth inhibition after 48 hrs by sulforhodamine B assay; format: functional; conditions: KM12, 48 h
[20] = test system: HT-29; assay: Antiproliferative activity against human HT-29 cells assessed as growth inhibition after 48 hrs by sulforhodamine B assay; format: functional; conditions: HT-29, 48 h
[21] = test system: HCT-15; assay: Antiproliferative activity against human HCT15 cells assessed as growth inhibition after 48 hrs by sulforhodamine B assay; format: functional; conditions: HCT-15, 48 h
[22] = test system: HCT-116; assay: Antiproliferative activity against human HCT116 cells assessed as growth inhibition after 48 hrs by sulforhodamine B assay; format: functional; conditions: HCT-116, 48 h
[23] = test system: HCC 2998; assay: Antiproliferative activity against human HCC2998 cells assessed as growth inhibition after 48 hrs by sulforhodamine B assay; format: functional; conditions: HCC 2998, 48 h
[24] = test system: COLO 205; assay: Antiproliferative activity against human COLO205 cells assessed as growth inhibition after 48 hrs by sulforhodamine B assay; format: functional; conditions: COLO 205, 48 h
[25] = test system: NCI-H522; assay: Antiproliferative activity against human NCI-H522 cells assessed as growth inhibition after 48 hrs by sulforhodamine B assay; format: functional; conditions: NCI-H522, 48 h
[26] = test system: NCI-H322M; assay: Antiproliferative activity against human NCI-H322M cells assessed as growth inhibition after 48 hrs by sulforhodamine B assay; format: functional
[27] = test system: NCI-H226; assay: Antiproliferative activity against human NCI-H226 cells assessed as growth inhibition after 48 hrs by sulforhodamine B assay; format: functional; conditions: NCI-H226, 48 h
[28] = test system: EKVX; assay: Antiproliferative activity against human EKVX cells assessed as growth inhibition after 48 hrs by sulforhodamine B assay; format: functional
[29] = test system: A549; assay: Antiproliferative activity against human A549/ATCC cells assessed as growth inhibition after 48 hrs by sulforhodamine B assay; format: functional; conditions: A549, 48 h
[30] = test system: MOLT-4; assay: Antiproliferative activity against human MOLT4 cells assessed as growth inhibition after 48 hrs by sulforhodamine B assay; format: functional; conditions: MOLT-4, 48 h
[31] = test system: K562; assay: Antiproliferative activity against human K562 cells assessed as growth inhibition after 48 hrs by sulforhodamine B assay; format: functional, cell-based; conditions: K562, 48 h, read-out: IC50
[32] = test system: HL-60(TB); assay: Antiproliferative activity against human HL-60(TB) cells assessed as growth inhibition after 48 hrs by sulforhodamine B assay; format: functional; conditions: HL-60, 48 h
[33] = test system: BT-549; assay: Antiproliferative activity against human BT549 cells assessed as growth inhibition after 48 hrs by sulforhodamine B assay; format: functional; conditions: BT-549, 48 h
[34] = test system: MDA-MB-468; assay: Antiproliferative activity against human MDA-MB-468 cells assessed as growth inhibition after 48 hrs by sulforhodamine B assay; format: functional; conditions: MDA-MB-468, 48 h
[35] = Haemolytic activity in human erythrocytes assessed as induction of hemolysis at 5 mM after 30 mins relative to H202; format: cell-based, Erythrocyte; conditions: read-out: Activity
[36] = test system: Erythrocyte; assay: Haemolytic activity in human erythrocytes assessed as induction of hemolysis at 0.625 mM after 30 mins relative to H202; format: cell-based; conditions: erythrocyte, 0.5 h, 625 µM
[37] = Antioxidant activity assessed as DPPH radical scavenging activity incubated in dark for 30 mins by spectrophotometric method relative to control; format: functional; design: concentration or dose not given beside the values
[38] = Antioxidant activity assessed as DPPH radical scavenging activity incubated in dark for 30 mins by spectrophotometric method relative to ascorbic acid; format: functional
[39] = Antioxidant activity assessed as ABTS radical scavenging activity by spectrophotometric analysis relative to control; format: functional; design: concentration or dose not given beside the values; conditions: dose or concentration not given here
[40] = Antioxidant activity assessed as ABTS radical scavenging activity by spectrophotometric method relative to ascorbic acid; format: functional
[41] = test system: HCT-116; assay: Induction of apoptosis in human HCT116 cells assessed as increase in caspase 9 mRNA expression at 100 nM after 6 hrs hrs by SYBR green dye-based qRT-PCR analysis relative to control; format: functional
[42] = test system: HCT-116; assay: […] in CDK1 mRNA expression in human HCT116 cells at 100 nM after 6 hrs hrs by SYBR green dye-based qRT-PCR analysis relative to control; format: functional

Compound: N=C(N)c1ccc(-c2ccc(-c3cc(Cl)cc(Cl)c3)o2)o1
- GI50 [1]: 1710 nM
- GI50 [2]: 1860 nM
- GI50 [3]: 1740 nM
- LC50 [3]: 10700 nM
- TGI [3]: 3470 nM
- Selectivity Index [4]: 9.2
- GI50 [5]: 1800 nM
- GI50 [6]: 1710 nM
- GI50 [7]: 1610 nM
- GI50 [8]: 1780 nM
- GI50 [9]: 1840 nM
- GI50 [10]: 2230 nM
- GI50 [11]: 1850 nM
- GI50 [12]: 1730 nM
- GI50 [13]: 1860 nM
- GI50 [14]: 1730 nM
- GI50 [15]: 1610 nM
- GI50 [16]: 1820 nM
- GI50 [17]: 1770 nM
- GI50 [18]: 1680 nM
- GI50 [19]: 1650 nM
- GI50 [20]: 1500 nM
- GI50 [21]: 1640 nM
- GI50 [22]: 1210 nM
- GI50 [23]: 1840 nM
- GI50 [24]: 1310 nM
- GI50 [25]: 1730 nM
- GI50 [26]: 1620 nM
- GI50 [27]: 2200 nM
- GI50 [28]: 1640 nM
- GI50 [29]: 1950 nM
- GI50 [30]: 1690 nM
- IC50 [31]: 1300 nM
- GI50 [32]: 1620 nM
- GI50 [33]: 1970 nM
- GI50 [34]: 2230 nM
- hemolysis at 0.5 h, 5000 µM [35]: 57.1%
- Activity [36]: Non-Toxic
- inhibition [37]: 15.7%
- fold change (FC) [38]: 0.2
- inhibition [39]: 19%
- fold change (FC) [40]: 0.2
- fold change (FC) [41]: 2.97
- fold change (FC) [42]: 0.54

Compound: N=C(N)c1ccc(-c2ccc(-c3ccc(Cl)cc3)s2)s1
- GI50 [1]: 1750 nM
- GI50 [2]: 1960 nM
- GI50 [3]: 1730 nM
- LC50 [3]: 29500 nM
- TGI [3]: 4070 nM
- Selectivity Index [4]: 40
- GI50 [5]: 1860 nM
- GI50 [6]: 1750 nM
- GI50 [7]: 13000 nM
- GI50 [8]: 1790 nM
- GI50 [9]: 1850 nM
- GI50 [10]: 2480 nM
- GI50 [11]: 1670 nM
- GI50 [12]: 1830 nM
- GI50 [13]: 3160 nM
- GI50 [14]: 1680 nM
- GI50 [15]: 1640 nM
- GI50 [16]: 1830 nM
- GI50 [17]: 1630 nM
- GI50 [18]: 1740 nM
- GI50 [19]: 1690 nM
- GI50 [20]: 1430 nM
- GI50 [21]: 1200 nM
- GI50 [22]: 1740 nM
- GI50 [23]: 1570 nM
- GI50 [24]: 1440 nM
- GI50 [25]: 1830 nM
- GI50 [26]: 1630 nM
- GI50 [27]: 2190 nM
- GI50 [28]: 1640 nM
- GI50 [29]: 2110 nM
- GI50 [30]: 1780 nM
- IC50 [31]: 670 nM
- GI50 [32]: 1490 nM
- GI50 [33]: 2110 nM
- GI50 [34]: 1980 nM
- hemolysis at 0.5 h, 5000 µM [35]: 49%
- Activity [36]: Non-Toxic
- inhibition [37]: 72.9%
- fold change (FC) [38]: 0.8
- inhibition [39]: 81.2%
- fold change (FC) [40]: 0.9
- fold change (FC) [41]: 2.91
- fold change (FC) [42]: 1.08
